Laboratory results taken from patent US8703801B2, “Pyridinone hydroxycyclopentyl carboxamides: HIV integrase inhibitors with therapeutic applications” (University of Georgia Research Foundation, Inc., priority 2009, dated 2014).

Tested on: HIV
Assay: anti-HIV activity in cell culture
Format: cell-based
Conditions: Human immunodeficiency virus 1, in vitro

SMILES	EC50 [nM]
O=C(N[C@H]1CCC[C@@H]1O)/C(O)=C/C(=O)c1cc(Cc2ccc(F)cc2F)cn(Cc2ccccc2F)c1=O [FIG. 1a]	25
O=C(NN1CCCC1=O)/C(O)=C/C(=O)c1cc(Cc2c(F)cccc2F)cn(Cc2ccccc2F)c1=O [FIG. 1b]	10
